The record followed here is paper PMC10101059, “Rational Design of Stapled Antimicrobial Peptides to Enhance Stability and In Vivo Potency against Polymicrobial Sepsis” (Microbiology Spectrum, 2023).

Data set [1] deals with NDM1 K. pneumoniae. Briefly: microbe, parasite or virus in culture. Type of data set: cell-based, Klebsiella pneumoniae.
For data set [2], the system named is MDR A. baumannii 2088. As to the kind of experiment: Checkerboard microdilution assay (FICI). Type of data set: cell-based, Acinetobacter baumannii. Here is the method:
(§1) The FICI was measured using a standard checkerboard microdilution assay ([57]). Two-fold dilutions of antibiotics were made across the x axis, and two-fold peptide dilutions were made across the y axis. Next, bacteria were added at 5 × 10^5 CFU/well (A. baumannii), followed by incubation at 37 ± 2°C for 16 to 20 h. FIC indices were calculated according to the following equations: FICI = FIC1 + FIC2; FIC1 = (MIC12 combined)/MIC1; FIC2 = (MIC12 combined)/MIC2. The combined efficacy was estimated as follows: FICI ≤ 0.5, synergistic; 0.5 to 1, additive; 1 to 2, indifferent; ≥2, antagonistic.
On the technique in general: Broth dilution looks for growth in wells or tubes with falling amounts of substance.

In data set [3] the test system is MDR A. baumannii 2997. Briefly: Checkerboard microdilution assay (FICI). Type of data set: cell-based, Acinetobacter baumannii. The procedure:
as §1

Data set [4] has as its system MDR A. baumannii 2998. As to the kind of experiment: Checkerboard microdilution assay (FICI). Type of data set: cell-based, Acinetobacter baumannii. Here is the method:
as §1

The test system of data set [5] is MDR A. baumannii 1033. As to the kind of experiment: Checkerboard microdilution assay (FICI). Type of data set: cell-based, Acinetobacter baumannii. Here is the method:
as §1

Data set [6] deals with MDR A. baumannii 3618. As to the kind of experiment: Checkerboard microdilution assay (FICI). Type of data set: cell-based, Acinetobacter baumannii. Here is the method:
as §1

Data set [7] concerns E. aerogenes. As to the kind of experiment: microbe, parasite or virus in culture. Type of data set: cell-based, Enterobacter aerogenes.
In data set [8] the test system is P. aeruginosae. Briefly: microbe, parasite or virus in culture. Type of data set: cell-based, Pseudomonas aeruginosa.
The test system of data set [9] is E. coli. As to the kind of experiment: microbe, parasite or virus in culture. Type of data set: cell-based, Escherichia coli.
Data set [10] deals with MDR A. baumannii 2982. Briefly: microbe, parasite or virus in culture. Type of data set: cell-based, Acinetobacter baumannii. The procedure: as §1
In data set [11] the test system is MDR A. baumannii 1607. As to the kind of experiment: microbe, parasite or virus in culture. Type of data set: cell-based, Acinetobacter baumannii. The procedure: as §1
The test system of data set [12] is MDR A. baumannii 1019. Briefly: microbe, parasite or virus in culture. Type of data set: cell-based, Acinetobacter baumannii. Here is the method: as §1
For data set [13], the system named is MDR A. baumannii 921. Briefly: microbe, parasite or virus in culture. Type of data set: cell-based, Acinetobacter baumannii. Here is the method:
as §1

For data set [14], the system named is MDR A. baumannii 1702. Briefly: microbe, parasite or virus in culture. Type of data set: cell-based, Acinetobacter baumannii. Here is the method: as §1
The test system of data set [15] is MDR A. baumannii 2962. Briefly: microbe, parasite or virus in culture. Type of data set: cell-based, Acinetobacter baumannii. The procedure:
as §1

For data set [16], the system named is MDR A. baumannii 14B001. As to the kind of experiment: microbe, parasite or virus in culture. Type of data set: cell-based, Acinetobacter baumannii. The procedure: as §1
The subject of data set [17] is S enterica. As to the kind of experiment: Checkerboard microdilution assay (FICI). Type of data set: cell-based, Salmonella enterica.
The subject of data set [18] is Acinetobacter baumannii. As to the kind of experiment: microbe, parasite or virus in culture. Type of data set: cell-based. To be noted: for MBC: read-out: MBC; for MIC: read-out: MIC. The procedure:
The antimicrobial assay was performed according to a modified National Committee for Clinical Laboratory Standards (NCCLS) protocol ([41], [42]). Briefly, 5 × 10^5 CFU/mL bacterial cells were treated with various peptide concentrations and incubated at 37 ± 2°C for 16 to 20 h. The lowest concentration with clear wells was recorded as the MIC for each test molecule. The clear wells were further plated in Mueller-Hinton agar (MHA) plates, followed by incubation overnight at 37 ± 2°C. After plating, the lowest concentration at which no growth was observed was recorded as the MBC. For the serum sensitivity assay, the antimicrobial activity of the peptides was tested in medium containing 50% human serum ([43], [44]). The antimicrobial assay was performed in the presence of physiological ions and glucose. The test media were supplemented with MgCl2 (1 mM), CaCl2 (2 mM), NaCl (150 mM), KCl (4.5 mM), NH4Cl (6 μM) ([45], [46]), or glucose (0.2%) ([47]), followed by routine antimicrobial assay as described previously. For the pH sensitivity assay, the antimicrobial assay was performed in media adjusted to pH values ranging from 4 to 12. To estimate the effects of temperature on antimicrobial activity, the peptide was incubated for 1 h at temperatures ranging from 40 to 100°C ([48]), followed by the antimicrobial assay as described above.

Data set [19] relates to human red blood cells. Type of data set: cell-based. Here is the method:
The hemolytic assay was performed after approval from the institutional ethics committee (Academia Sinica Institutional Review Board [IRB]; ID no. AS-IRB02-111075). Blood was collected from healthy humans, and 50 μL of a 2% blood cell suspension in normal saline was treated with an equal volume of peptide at different concentrations. The mixture was then incubated at 37 ± 2°C for 1 h. Next, the cell suspension was centrifuged at 1,000 × g for 10 min. Percent hemolysis was estimated by the absorbance of treated and control supernatant samples at 540 nm ([23], [44]).

Data set [20] concerns Staphylococcus aureus. Type of data set: cell-based. Here is the method:
The antimicrobial assay was performed according to a modified National Committee for Clinical Laboratory Standards (NCCLS) protocol ([41], [42]). Briefly, 5 × 10^5 CFU/mL bacterial cells were treated with various peptide concentrations and incubated at 37 ± 2°C for 16 to 20 h. The lowest concentration with clear wells was recorded as the MIC for each test molecule. The clear wells were further plated in Mueller-Hinton agar (MHA) plates, followed by incubation overnight at 37 ± 2°C. After plating, the lowest concentration at which no growth was observed was recorded as the MBC. For the serum sensitivity assay, the antimicrobial activity of the peptides was tested in medium containing 50% human serum ([43], [44]).

[21] abbreviates: MIC of each agent in combination, TP4-3 and D.
Where [22] appears, read: Acinetobacter baumannii, read-out: Single drug treatment MIC.

Each structure is given as a SMILES string. Converted amounts (≈) assume the structure as drawn. Bridge positions count the residues as written; N and C are the ends. Square brackets hold non-standard residues; d marks the D form. Peptide text beside a SMILES is read from it. R5 = C=CCCC[C@@](C)(N)C(=O)O Where only a bound is given, the exact number is not on record here.

`C[C@H]1c2cccc(O)c2C(=O)C2=C(O)[C@]3(O)C(=O)C(C(N)=O)=C(O)[C@@H](N(C)C)[C@@H]3[C@@H](O)[C@@H]21` [D, doxycycline]: the MIC worked out at 25 µM (≈ 11.1 µg/mL) in data set [1] (Klebsiella pneumoniae, read-out: Single drug treatment MIC); 100 µM in [2] (setting [22]); 50 µM in data set [3] (setting [22]); 50 µM in [4] (setting [22]); 50 µM in data set [5] (setting [22]); 100 µM in data set [6] (setting [22]). Also, the MIC in data set [7] (Klebsiella aerogenes, read-out: Single drug treatment MIC) was determined as 3.13 µM (≈ 1.39 µg/mL); in data set [8] (Pseudomonas aeruginosa, read-out: Single drug treatment MIC), 6.25 µM (≈ 2.78 µg/mL); in data set [9] (Escherichia coli, read-out: Single drug treatment MIC), 50 µM (≈ 22.2 µg/mL); in [10] (setting [22]) it was 50 µM; in [11] (setting [22]), 100 µM; in [12] (setting [22]), 100 µM. Also, the MIC in data set [13] (setting [22]) was determined as 200 µM; in data set [14] (setting [22]) it was 50 µM; in data set [15] (setting [22]), 100 µM; in [16] (setting [22]), 50 µM; in [17] (Salmonella enterica, read-out: Single drug treatment MIC) it was 6.25 µM. The “TP4-3 and meropenem combined MIC” value was found to be 3.13 µM in data set [1] (setting [21]); 12.5 µM in data set [2] (setting [21]); 25 µM in data set [3] (setting [21]); 12.5 µM in [4] (setting [21]); 12.5 µM in [5] (setting [21]); 25 µM in [6] (setting [21]). The “TP4-3 and meropenem combined MIC” value in data set [7] (setting [21]) came out at 0.78 µM; in data set [8] (setting [21]), 12.5 µM; in data set [9] (setting [21]), 0.78 µM; in [10] (setting [21]), 25 µM; in data set [11] (setting [21]), 25 µM; in [12] (setting [21]), 12.5 µM. The “TP4-3 and meropenem combined MIC” value in data set [13] (setting [21]) is listed as 25 µM; in data set [14] (setting [21]), 12.5 µM; in data set [15] (setting [21]) it was 25 µM; in data set [16] (setting [21]), 50 µM; in [17] (setting [21]), 1.56 µM.

On to `CC[C@H](C)[C@H](NC(=O)[C@@H](NC(=O)[C@@H](NC(=O)[C@@H](N)Cc1ccccc1)[C@@H](C)CC)[C@@H](C)CC)C(=O)N[C@@H](CCCCN)C(=O)N[C@@H](CCCCN)C(=O)N[C@@H](CO)C(=O)NCC(=O)NCC(=O)N[C@@H](CC(C)C)C(=O)N[C@]1(C)CCCC=CCCC[C@](C)(C(=O)NCC(=O)N[C@@H](C)C(=O)N[C@]2(C)CCCC=CCCC[C@](C)(C(=O)N[C@H](C(=O)N[C@@H](CCCCN)C(=O)N[C@@H](CCCCN)C(=O)O)[C@@H](C)CC)NC(=O)[C@H](CCCCN)NC(=O)[C@H](CCCCN)NC(=O)[C@H](CCCCN)NC2=O)NC(=O)[C@H](CCCCN)NC(=O)[C@H](CCCCN)NC(=O)[C@H](CCCCN)NC1=O` [TP4-2] (H-FIIIKKSGGL[R5]KKK[R5]GA[R5]KKK[R5]IKK-OH; staple 11-15, 18-22; N-terminus and C-terminus assumed), for which the MBC was 12.5 µM (≈ 35.5 µg/mL) in data set [18] and more than 25 µM in data set [20]. Besides, the MIC is 12.5 µM (≈ 35.5 µg/mL) in [18] and more than 25 µM in data set [20]. Further, in data set [19], the 15% hemolysis concn is more than 100 µM.

Regarding `CC[C@H](C)[C@H](NC(=O)[C@@H](NC(=O)[C@@H](NC(=O)[C@@H](N)Cc1ccccc1)[C@@H](C)CC)[C@@H](C)CC)C(=O)N[C@@H](CCCCN)C(=O)N[C@@H](CCCCN)C(=O)N[C@@H](CO)C(=O)NCC(=O)NCC(=O)N[C@@H](CC(C)C)C(=O)N[C@@H](Cc1ccccc1)C(=O)N[C@@H](CCCCN)C(=O)N[C@@H](CCCCN)C(=O)N[C@@H](CCCCN)C(=O)N[C@@H](C)C(=O)NCC(=O)N[C@@H](C)C(=O)N[C@]1(C)CCCC=CCCC[C@](C)(C(=O)N[C@H](C(=O)N[C@@H](CCCCN)C(=O)N[C@@H](CCCCN)C(=O)O)[C@@H](C)CC)NC(=O)[C@H](CCCCN)NC(=O)[C@H](CCCCN)NC(=O)[C@H](CCCCN)NC1=O` [TP4-1] (H-FIIIKKSGGLFKKKAGA[R5]KKK[R5]IKK-OH; staple 18-22; N-terminus and C-terminus assumed), the MBC in data set [18] and in data set [20] was more than 25 µM each time. Besides, the MIC in data set [18] and in data set [20] was more than 25 µM in each case. The 15% hemolysis concn in data set [19] was more than 100 µM.

As for `CC[C@H](C)[C@H](NC(=O)[C@@H](NC(=O)[C@@H](N)Cc1ccccc1)[C@@H](C)CC)C(=O)N[C@]1(C)CCCC=CCCC[C@](C)(C(=O)NCC(=O)N[C@@H](CC(C)C)C(=O)N[C@]2(C)CCCC=CCCC[C@](C)(C(=O)NCC(=O)N[C@@H](C)C(=O)N[C@]3(C)CCCC=CCCC[C@](C)(C(=O)N[C@H](C(=O)N[C@@H](CCCCN)C(=O)N[C@@H](CCCCN)C(=O)O)[C@@H](C)CC)NC(=O)[C@H](CCCCN)NC(=O)[C@H](CCCCN)NC(=O)[C@H](CCCCN)NC3=O)NC(=O)[C@H](CCCCN)NC(=O)[C@H](CCCCN)NC(=O)[C@H](CCCCN)NC2=O)NC(=O)[C@H](CO)NC(=O)[C@H](CCCCN)NC(=O)[C@H](CCCCN)NC1=O` [TP4-4] (H-FII[R5]KKS[R5]GL[R5]KKK[R5]GA[R5]KKK[R5]IKK-OH; staple 4-8, 11-15, 18-22; N-terminus and C-terminus assumed), in data set [18], the MBC is 12.5 µM (≈ 36.5 µg/mL) and the MIC is reported as 12.5 µM (≈ 36.5 µg/mL). The same molecule displayed a 15% hemolysis concn in data set [19] of more than 100 µM. Moreover, in data set [20], the MBC was more than 25 µM and the MIC was more than 25 µM.
